Test results from PMC6977461 (Chemical Science, 2019).

Target: T1, mouse GLP-1 receptor (Mus musculus, UniProt O35659)
T1 construct: βTC6 cells which express GLP-1R endogenously; host or cells: βTC6 cells
T1 sequence (O35659 22-463): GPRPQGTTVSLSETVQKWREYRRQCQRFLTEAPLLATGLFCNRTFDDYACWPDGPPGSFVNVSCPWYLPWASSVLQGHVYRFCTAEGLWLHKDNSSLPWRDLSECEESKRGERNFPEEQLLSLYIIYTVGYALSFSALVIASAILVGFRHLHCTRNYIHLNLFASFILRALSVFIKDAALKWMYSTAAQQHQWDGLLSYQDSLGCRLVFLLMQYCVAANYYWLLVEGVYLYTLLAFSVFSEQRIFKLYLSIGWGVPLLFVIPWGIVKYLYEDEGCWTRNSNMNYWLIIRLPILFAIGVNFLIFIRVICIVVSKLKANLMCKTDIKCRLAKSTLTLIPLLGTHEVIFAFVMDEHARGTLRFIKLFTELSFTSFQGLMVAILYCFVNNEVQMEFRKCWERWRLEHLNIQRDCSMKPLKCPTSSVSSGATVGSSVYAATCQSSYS
Experiment: cAMP production in βTC6 cells expressing GLP-1R endogenously (Method C2)
Assay type: cell-based
Settings: for Potency (%), Table S1: from EC50 in βTC6 cAMP assay, footnote: compare to GLP-1-NH2 (2); for EC50: read-out: EC50 (GLP-1R potency), Table S1
Procedure:  HEK-293T cells (Multispan inc., lot#.DC1267-062017) were suspended in cell culture media
(DMEM 1X + GlutaMAX (Gibco 31966-021)) complemented with FBS 10% (Sigma Aldrich
 βTC6 cells were suspended in HBSS buffer (Invitrogen) complemented with 20 mM HEPES (pH
In vitro pharmacology on HEK-293T cells (EC50: Method C1)
cells (Multispan inc., lot#.DC1267-062017) was determined by measuring their effects on cAMP
production using the HTRF detection method (performed by UREkA SARL). The cells were distributed
in 384-well microplates at a density of 1.0x10^4 cells/well. Stock solutions of the test compounds or the
reference agonist were prepared at a concentration of 1 mM in DMSO. Then, compounds to be tested
were diluted in cell culture media and transferred to the plate containing the cells to reach final assay

Potency (%), Table S1 | EC50 | Structure (SMILES)
8% |  | CC[C@H](C)[C@H](NC(=O)[C@H](Cc1ccccc1)NC(=O)[C@H](CCC(=O)O)NC(=O)[C@H](CCCCN)NC(=O)[C@H](C)NC(=O)[C@H](C)NC(=O)[C@H](CCC(N)=O)NC(=O)CNC(=O)[C@H](CCC(=O)O)NC(=O)[C@H](CC(C)C)NC(=O)[C@H](Cc1ccc(O)cc1)NC(=O)[C@H](CO)NC(=O)[C@H](CO)NC(=O)[C@@H](NC(=O)[C@H](CC(=O)O)NC(=O)[C@H](CO)NC(=O)[C@@H](NC(=O)[C@H](Cc1ccccc1)NC(=O)[C@@H](NC(=O)CNC(=O)[C@H](CCC(=O)O)NC(=O)NC[C@H](CO)NC(=O)[C@@H](N)Cc1c[nH]cn1)[C@@H](C)O)[C@@H](C)O)C(C)C)C(=O)N[C@@H](C)C(=O)N[C@@H](Cc1c[nH]c2ccccc12)C(=O)N[C@@H](CC(C)C)C(=O)N[C@H](C(=O)N[C@@H](CCCCN)C(=O)NCC(=O)N[C@@H](CCCNC(=N)N)C(=O)NCC(N)=O)C(C)C [S1]
< 0.01% | > 10 µM | CC[C@H](C)[C@H](NC(=O)[C@H](Cc1ccccc1)NC(=O)[C@H](CCC(=O)O)NC(=O)[C@H](CCCCN)NC(=O)[C@H](C)NC(=O)[C@H](C)NC(=O)[C@H](CCC(N)=O)NC(=O)CNC(=O)[C@H](CCC(=O)O)NC(=O)[C@H](CC(C)C)NC(=O)[C@H](Cc1ccc(O)cc1)NC(=O)[C@H](CO)NC(=O)[C@H](CO)NC(=O)[C@@H](NC(=O)[C@H](CC(=O)O)NC(=O)[C@H](CO)NC(=O)[C@@H](NC(=O)[C@H](Cc1ccccc1)NC(=O)[C@@H](NC(=O)CNC(=O)[C@H](CCC(=O)O)NC(=O)NC[C@H](CCCNC(=N)N)NC(=O)[C@@H](N)Cc1c[nH]cn1)[C@@H](C)O)[C@@H](C)O)C(C)C)C(=O)N[C@@H](C)C(=O)N[C@@H](Cc1c[nH]c2ccccc12)C(=O)N[C@@H](CC(C)C)C(=O)N[C@H](C(=O)N[C@@H](CCCCN)C(=O)NCC(=O)N[C@@H](CCCNC(=N)N)C(=O)NCC(N)=O)C(C)C [S2]
0% | 0.065 µM | CC[C@H](C)[C@H](NC(=O)[C@H](Cc1ccccc1)NC(=O)[C@H](CCC(=O)O)NC(=O)[C@H](CCCCN)NC(=O)[C@H](C)NC(=O)[C@H](C)NC(=O)[C@H](CCC(N)=O)NC(=O)CNC(=O)[C@H](CCC(=O)O)NC(=O)[C@H](CC(C)C)NC(=O)[C@H](Cc1ccc(O)cc1)NC(=O)[C@H](CO)NC(=O)[C@H](CO)NC(=O)[C@@H](NC(=O)[C@H](CC(=O)O)NC(=O)[C@H](CO)NC(=O)[C@@H](NC(=O)[C@H](Cc1ccccc1)NC(=O)[C@@H](NC(=O)CNC(=O)[C@H](CCC(=O)O)NC(=O)NC[C@H](CS)NC(=O)[C@@H](N)Cc1c[nH]cn1)[C@@H](C)O)[C@@H](C)O)C(C)C)C(=O)N[C@@H](C)C(=O)N[C@@H](Cc1c[nH]c2ccccc12)C(=O)N[C@@H](CC(C)C)C(=O)N[C@H](C(=O)N[C@@H](CCCCN)C(=O)NCC(=O)N[C@@H](CCCNC(=N)N)C(=O)NCC(N)=O)C(C)C [S3]
< 0.01% | > 10 µM | CC[C@H](C)[C@H](NC(=O)[C@H](Cc1ccccc1)NC(=O)[C@H](CCC(=O)O)NC(=O)[C@H](CCCCN)NC(=O)[C@H](C)NC(=O)[C@H](C)NC(=O)[C@H](CCC(N)=O)NC(=O)CNC(=O)[C@H](CCC(=O)O)NC(=O)[C@H](CC(C)C)NC(=O)[C@H](Cc1ccc(O)cc1)NC(=O)[C@H](CO)NC(=O)[C@H](CO)NC(=O)[C@@H](NC(=O)[C@H](CC(=O)O)NC(=O)[C@H](CO)NC(=O)[C@@H](NC(=O)[C@H](Cc1ccccc1)NC(=O)[C@@H](NC(=O)CNC(=O)[C@H](CCC(=O)O)NC(=O)NC[C@H](CCC(N)=O)NC(=O)[C@@H](N)Cc1c[nH]cn1)[C@@H](C)O)[C@@H](C)O)C(C)C)C(=O)N[C@@H](C)C(=O)N[C@@H](Cc1c[nH]c2ccccc12)C(=O)N[C@@H](CC(C)C)C(=O)N[C@H](C(=O)N[C@@H](CCCCN)C(=O)NCC(=O)N[C@@H](CCCNC(=N)N)C(=O)NCC(N)=O)C(C)C [S4]
